Laboratory results reported in PMC7070320, “Unsymmetrically Substituted Dibenzo[b,f][1,5]-diazocine-6,12(5H,11H)dione—A Convenient Scaffold for Bioactive Molecule Design” (Molecules, 2020).
Like-named read-outs stand apart in the source and are kept apart here. Values belong to the compound of their own block, whether it stands above or below them.

Experiments:
[1] = system: HeLa; experiment: Cytotoxicity assay (Alamar Blue), HeLa cells; assay type: cell-based; details: Homo sapiens, read-out: IC50 based on the survival of cells
Description: (§1) Following cell lines: HeLa, U87, HEK293, EUFA30 were cultured in DMEM medium (Life Technology, Carlsbad, CA, USA) with 10% fetal bovine serum (Thermo Fisher Scientific, Waltham, MA, USA) and 0.1% antibiotics (penicillin, streptomycin, Life Technology, Carlsbad, CA, USA). Cells were grown in atmosphere of 5 and 95% CO2 and air, respectively, at 37 °C.
(§2) Exponentially growing cells at the density of 2 × 10^3 cells/well were seeded onto a 96-well plate, cultured for 18 h, and treated with newly synthesized compounds at concentrations 1–200 µM, or with DMSO as a control, for 24 or 48 h. Alamar Blue (Thermo Fisher Scientific, Waltham, MA, USA) was added accordingly to manufacturer protocol. After 4 h, light emission at 590 nm was measured with excitation at 560 nm using a scanning multiwell spectrophotometer (DTX 880, Beckman Coulter, Brea, CA, USA). The experiments were repeated at least three times with three replicates for each inhibitor concentration. After background subtraction, inhibition rates, IC50, were calculated as the component concentration inhibiting cell growth by 50%. All the calculations were performed using Origin 9.0 software.

[2] = system: two normal (HEK293, EUFA30) and two cancerous (HeLa, U87) cell lines; experiment: Cytotoxicity assay (Alamar Blue), statements over all four cell lines; assay type: cell-based, human; details: concentrations tested: 1–200 µM
Description: as §1, §2

[3] = system: HEK293; experiment: Cytotoxicity assay (Alamar Blue), HEK293 cells; assay type: cell-based, human; details: read-out: IC50 based on the survival of cells
Description: as §1, §2

[4] = system: EUFA30; experiment: Cytotoxicity assay (Alamar Blue), EUFA30 cells; assay type: cell-based; details: Homo sapiens, read-out: IC50 based on the survival of cells
Description: as §1, §2

[5] = system: U87; experiment: Cytotoxicity assay (Alamar Blue), U87 cells; assay type: cell-based, human; details: read-out: IC50 based on the survival of cells
Description: as §1, §2

[6] = system: HeLa; experiment: Flow cytometry apoptosis detection (Annexin V-FITC / propidium iodide), HeLa; assay type: cell-based, human; details: 200 µM
Description: as §1
(§3) The apoptosis detection kit (Annexin V-FITC BD Biosciences, Franklin Lakes, NJ, USA) was used to detect apoptosis by flow cytometry. Cells were seeded in 6-well plates at concentration of 5 × 10^5 cells/well, cultured for 18 h, and tested compound was applied for indicated time. Afterwards, cells were washed with PBS, resuspended in binding buffer at concentration of 2 × 10^6 cells/mL. The anti-Annexin V FITC-conjugated antibody and propidium iodide were added to 100 µl aliquots. Then, mixtures were incubated for 15 min at room temperature, supplemented with binding buffer to 500 µl and processed by BD FACSCalibur (BD Biosciences, Franklin Lakes, NJ, USA). Data were analyzed in Flowing Software version 2.5.1 (Flowing Software, http://www.uskonaskel.fi/flowingsoftware).

[7] = system: U87; experiment: Flow cytometry apoptosis detection (Annexin V-FITC / propidium iodide), U87; assay type: cell-based, human; details: U87, 200 µM; for cells in late apoptosis: control 1.6%; for cells in necrosis: control 8.6%; for cells in necrotic phase: 48 h, control 17%
Description: as §1, §3

[8] = system: HEK293; experiment: Flow cytometry apoptosis detection (Annexin V-FITC / propidium iodide), HEK293; assay type: cell-based, human; details: HEK293, 200 µM; for cells in necrosis: control cells 20%; for cells in early apoptosis: control cells 1.3%
Description: as §1, §3

[9] = Homo sapiens, HEK293, 24 h, HEK293, 24 h of treatment
[10] = Homo sapiens, HEK293, 48 h, HEK293, 48 h of treatment
[11] = Homo sapiens, U-87 MG, 24 h, U87, 24 h of treatment
[12] = Homo sapiens, U-87 MG, 48 h, U87, 48 h of treatment

melting point: 247 to 248 °C
SMILES: CN1C(=O)c2cc(Br)ccc2NC(=O)c2ccccc21 [Compound 10e, 2-Bromo-11-methyldibenzo[b,f][1,5]diazocine-6,12(5H,11H)-dione]
IC50 ([1]; 24 h of treatment): > 200 µM

melting point: 283 to 284 °C
SMILES: O=C1Nc2ccc(Br)cc2C(=O)Nc2ccccc21 [Compound 10b, 2-Bromodibenzo[b,f][1,5]diazocine-6,12(5H,11H)-dione]
IC50 ([1]; 24 h of treatment): 97.3 ± 13.7 µM | cytotoxic effect (in words) [2]: showed a cytotoxic effect while maintaining the selectivity of action

melting point: 271 to 272 °C
SMILES: COc1cc2c(cc1OC)C(=O)N(C)c1ccccc1C(=O)N2 [Compound 10g, 2,3-Dimethoxy-11-methyldibenzo[b,f][1,5]diazocine-6,12(5H,11H)-dione]

melting point: 195 to 196 °C
SMILES: COc1cc2c(cc1OC)C(=O)Nc1ccc(Br)cc1C(=O)N2 [Compound 10c, 8-Bromo-2,3-dimethoxydibenzo[b,f][1,5]diazocine-6,12(5H,11H)-dione]
cytotoxic effect (in words) [2]: no cytotoxic effect in the concentration range tested

melting point: 270 to 271 °C
SMILES: CN1C(=O)c2cc3ccccc3cc2NC(=O)c2cc(Cl)ccc21 [Compound 10h, 2-Chloro-5-methylbenzo[b]naphtho[2,3-f][1,5]diazocine-6,14(5H,13H)-dione]
IC50 [3, 9]: > 200 µM | IC50 ([1]; 24 h of treatment): 107 ± 10 µM | IC50 ([1]; 48 h of treatment): 108 ± 8.6 µM | IC50 ([4]; Eufa30, 24 h of treatment): 170 ± 21.1 µM | IC50 ([4]; Eufa30, 48 h of treatment): 200 ± 13.9 µM | IC50 [5, 11]: 149 ± 9 µM | IC50 [5, 12]: 182 ± 5.6 µM | cytotoxic effect (in words) [2]: showed a cytotoxic effect while maintaining the selectivity of action | cells in early apoptosis ([7]; 24 h, control 1.2%): 4.1% | cells in late apoptosis ([7]; 24 h): 6.9% | cells in necrotic phase [7]: 36.2% | cells in late apoptosis ([8]; 24 h, control cells 0.4%): 3% | cells in necrosis ([8]; 24 h): 32% | cells in late apoptosis ([8]; 48 h, control cells 0.5%): 3.2% | cells in early apoptosis ([8]; 48 h): 3.8%

melting point: 186 to 187 °C (dec.)
SMILES: COc1cc2c(cc1OC)C(=S)Nc1ccc(Br)cc1C(=S)N2 [Compound 10p, 8-bromo-2,3-dimethoxydibenzo[b,f][1,5]diazocine-6,12(5H,11H)-dithione]
IC50 ([3]; HEK293, 24 h of treatment): 202 ± 7.9 µM | IC50 [3, 9]: > 200 µM | IC50 [3, 10]: 145 ± 8.5 µM | IC50 ([1]; 24 h of treatment): 115 ± 4.5 µM | IC50 ([1]; 48 h of treatment): 204 ± 6.5 µM | IC50 ([4]; Eufa30, 24 h of treatment): > 200 µM | IC50 ([4]; Eufa30, 48 h of treatment): 158 ± 9.6 µM | IC50 [5, 11]: 170 µM | IC50 ([5]; U87, 24 h of treatment): 172 ± 10 µM | percentage of necrotic cells ([6]; 24 h, non-treated control 21.1%): 34.5% | percentage of necrotic cells ([6]; 48 h, control cells 22.1%): 53.4% | cytotoxic effect (in words) [2]: showed a cytotoxic effect while maintaining the selectivity of action | cells in necrosis ([7]; 24 h): 14% | cells in necrotic phase [7]: 46.6%

Continued, compound first:

SMILES: CCOC(=O)CN1C(=O)c2ccccc2N(C)C(=O)c2ccccc21 [Compound 10n, ethyl 2-(11-methyl-6,12-dioxo-11,12-dihydrodibenzo[b,f][1,5]diazocin-5(6H)-yl)acetate]
melting point: 125 to 126 °C

SMILES: CN1C(=O)c2cc(Br)ccc2N(Cc2cccc3ccccc23)C(=O)c2ccccc21 [Compound 10k, 2-Bromo-11-methyl-5-(naphthalen-1-ylmethyl)dibenzo[b,f][1,5]diazocine-6,12(5H,11H)-dione]
IC50 [3, 9]: 119 ± 7.1 µM | IC50 [3, 10]: 138 ± 12 µM | IC50 ([1]; 24 h of treatment): 75.3 ± 1.6 µM | IC50 ([1]; 48 h of treatment): 124 ± 5.4 µM | IC50 ([4]; Eufa30, 24 h of treatment): 87.6 ± 8.1 µM | IC50 ([4]; Eufa30, 48 h of treatment): 74.4 ± 6.7 µM | IC50 [5, 11]: 75.4 ± 8.7 µM | IC50 [5, 12]: 197 ± 9.4 µM | changes in the apoptosis/necrosis phases in relation to control ([6]; 24 and 48 h): did not observe any changes in the apoptosis/necrosis phases in relation to control | changes in the apoptosis/necrosis phases in relation to control ([7]; 24 and 48 h): did not observe any changes in the apoptosis/necrosis phases in relation to control | changes in the apoptosis/necrosis phases in relation to control ([8]; 24 and 48 h): did not observe any changes in the apoptosis/necrosis phases in relation to control | melting point: 255 to 256 °C

SMILES: O=C1Nc2ccccc2C(=O)N(Cc2ccc(Br)cc2)c2ccccc21 [Compound 10j, 5-(4-Bromobenzyl)dibenzo[b,f][1,5]diazocine-6,12(5H,11H)-dione]
IC50 [3, 10]: 192 ± 12.2 µM | IC50 ([1]; 24 h of treatment): 138 ± 14.1 µM | IC50 ([1]; 48 h of treatment): 203 ± 4 µM | cytotoxic effect (in words) [2]: showed a cytotoxic effect while maintaining the selectivity of action | cells in late apoptosis ([7]; 24 h): 5.2% | cells in necrosis ([7]; 24 h): 17.8% | cells in necrotic phase [7]: 28.1% | cells in late apoptosis ([8]; 24 h, control cells 0.4%): 10% | cells in necrosis ([8]; 24 h): 22% | cells in late apoptosis ([8]; 48 h, control cells 0.5%): 4.4% | cells in early apoptosis ([8]; 48 h): 4% | melting point: 222 to 223 °C

SMILES: O=C1Nc2ccc(Cl)cc2C(=O)Nc2ccccc21 [Compound 10a, 2-Chlorodibenzo[b,f][1,5]diazocine-6,12(5H,11H)-dione]
cytotoxic effect (in words) [2]: no cytotoxic effect in the concentration range tested | melting point: 275 to 276 °C

SMILES: O=C1Nc2nccnc2C(=O)Nc2ccc(Cl)cc21 [Compound 10m, 8-Chloropyrazino[3,2-c][1,5]benzodiazocine-6,12(5H,11H)-dione]
melting point: 346 to 347 °C

SMILES: CN1C(=O)c2ccccc2NC(=O)c2ccccc21 [Compound 10d, 5-Methyldibenzo[b,f][1,5]diazocine-6,12(5H,11H)-dione]
melting point: 258 to 259 °C

SMILES: CC(=O)N1C(=O)c2ccccc2N(C)C(=O)c2ccccc21 [Compound 10o, 5-acetyl-11-methyldibenzo[b,f][1,5]diazocine-6,12(5H,11H)-dione]
melting point: 193 to 194 °C

SMILES: O=C1Nc2ccccc2C(=O)N(Cc2ccccc2)c2ccccc21 [Compound 10i, 5-Benzyldibenzo[b,f][1,5]diazocine-6,12(5H,11H)-dione]
melting point: 212 to 213 °C

SMILES: CN1C(=O)c2cc([N+](=O)[O-])ccc2NC(=O)c2ccccc21 [Compound 10f, 11-Methyl-2-nitrodibenzo[b,f][1,5]diazocine-6,12(5H,11H)-dione]
IC50 ([1]; 24 h of treatment): 206 ± 12.8 µM | cytotoxic effect (in words) [2]: showed a cytotoxic effect while maintaining the selectivity of action | cells in late apoptosis ([8]; 24 h, control cells 0.4%): 0.5% | cells in necrosis ([8]; 24 h): 39% | cells in late apoptosis ([8]; 48 h, control cells 0.5%): 3% | cells in early apoptosis ([8]; 48 h): 6.6% | melting point: 225 to 226 °C
